# Experimental data reported in patent publication US20120115893A1, “Substituted Bicyclic Carboxamide and Urea Compounds as Vanilloid Receptor Ligands” (Gruenenthal GmbH, priority 2010, published 2012).
# How the values were obtained:
# [1] = biological target: T1, vanilloid receptor 1 (VR1/TRPV1 receptor) (Homo sapiens, UniProt Q8NER1); assay: FLIPR Ca2+ influx assay, capsaicin stimulus, CHO K1 cells transfected with human VR1 gene; assay type: cell-based, human being; conditions: for inhibition at 5 µM: CHO-K1, @ 5 μM, read-out: inhibition (as a percentage), (f) Ki (human being) Cap column; for (f) Ki (human being) [nM] Cap / Ki: functional, NE=no effect; for Ki: read-out: (f) Ki (human being) [nM] Cap
# T1 construct: expressed in transfected cells; host or cells: CHO K1 cells (ECACC), stably transfected
# T1 sequence (Q8NER1 whole entry): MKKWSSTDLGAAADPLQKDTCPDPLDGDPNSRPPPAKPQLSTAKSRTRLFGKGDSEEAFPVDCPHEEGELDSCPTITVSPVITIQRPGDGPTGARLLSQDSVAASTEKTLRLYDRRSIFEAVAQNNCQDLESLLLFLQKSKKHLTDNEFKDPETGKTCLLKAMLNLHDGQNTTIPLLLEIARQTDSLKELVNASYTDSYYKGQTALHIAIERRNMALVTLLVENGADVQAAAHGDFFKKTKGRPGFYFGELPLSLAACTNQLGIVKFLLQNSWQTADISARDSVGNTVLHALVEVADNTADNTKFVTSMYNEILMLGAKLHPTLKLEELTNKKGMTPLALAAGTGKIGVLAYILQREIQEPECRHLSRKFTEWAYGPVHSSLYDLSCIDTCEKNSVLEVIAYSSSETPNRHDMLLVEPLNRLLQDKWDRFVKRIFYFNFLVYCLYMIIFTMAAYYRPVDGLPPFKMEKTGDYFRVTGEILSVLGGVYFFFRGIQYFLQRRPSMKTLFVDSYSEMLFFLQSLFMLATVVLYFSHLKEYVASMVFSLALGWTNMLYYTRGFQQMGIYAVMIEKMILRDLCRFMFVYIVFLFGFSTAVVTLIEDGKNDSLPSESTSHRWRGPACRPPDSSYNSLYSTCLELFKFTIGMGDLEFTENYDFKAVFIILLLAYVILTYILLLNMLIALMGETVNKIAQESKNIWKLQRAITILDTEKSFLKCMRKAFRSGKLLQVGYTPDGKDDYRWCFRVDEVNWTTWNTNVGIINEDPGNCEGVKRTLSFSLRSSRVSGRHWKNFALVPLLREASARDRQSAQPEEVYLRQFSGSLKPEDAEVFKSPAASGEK
# Protocol: Furthermore, preference may be given to compounds according to the invention of general formula (I) that cause a 50 percent displacement of capsaicin, which is present at a concentration of 100 nM, in a FLIPR assay with CHO K1 cells which were transfected with the human VR1 gene at a concentration of less than 2,000 nM, preferably less than 1,000 nM, particularly preferably less than 300 nM, most particularly preferably less than 100 nM, even more preferably less than 75 nM, additionally preferably less than 50 nM, most preferably less than 10 nM.
# In the process, the Ca^2+ influx is quantified in the FLIPR assay with the aid of a Ca^2+-sensitive dye (type Fluo-4, Molecular Probes Europe BV, Leiden, the Netherlands) in a fluorescent imaging plate reader (FLIPR, Molecular Devices, Sunnyvale, USA), as described hereinafter.
# (§1) The agonistic or antagonistic effect of the substances to be tested on the vanilloid receptor 1 (VR1) can also be determined using the following assay. In this assay, the influx of Ca^2+ through the channel is quantified with the aid of a Ca^2+-sensitive dye (type Fluo-4, Molecular Probes Europe BV, Leiden, the Netherlands) in a fluorescent imaging plate reader (FLIPR, Molecular Devices, Sunnyvale, USA).
# (§2) Chinese hamster ovary cells (CHO K1 cells, European Collection of Cell Cultures (ECACC) United Kingdom) are stably transfected with the VR1 gene. For functional testing, these cells are plated out on poly-D-lysine-coated black 96-well plates having a clear base (BD Biosciences, Heidelberg, Germany) at a density of 25,000 cells/well. The cells are incubated overnight at 37° C. and 5% CO2 in a culture medium (Ham's F12 nutrient mixture, 10% by volume of FCS (foetal calf serum), 18 μg/ml of L-proline). The next day the cells are incubated with Fluo-4 (Fluo-4 2 μM, 0.01% by volume of Pluronic F127, Molecular Probes in HBSS (Hank's buffered saline solution), Gibco Invitrogen GmbH, Karlsruhe, Germany) for 30 minutes at 37° C. Subsequently, the plates are washed three times with HBSS buffer and after further incubation for 15 minutes at RT used for Ca^2+ measurement in a FLIPR assay. The Ca^2+-dependent fluorescence is measured before and after the addition of the substances to be tested (λex wavelength=488 nm, λem=540 nm). Quantification is carried out by measuring the highest fluorescence intensity (FC, fluorescence counts) over time.
# The FLIPR protocol consists of 2 substance additions. First the compounds to be tested (10 μM) are pipetted onto the cells and the Ca^2+ influx is compared with the control (capsaicin 10 μM) (% activation based on the Ca^2+ signal after the addition of 10 μM of capsaicin). After 5 minutes' incubation, 100 nM of capsaicin are applied and the Ca^2+ influx is also determined.
# Desensitising agonists and antagonists led to suppression of the Ca^2+ influx. The % inhibition is calculated compared to the maximum achievable inhibition with 10 μM of capsaicin.
# Starting from the percentage displacement caused by different concentrations of the compounds to be tested of general formula I, IC50 inhibitory concentrations which cause a 50-percent displacement of capsaicin were calculated. K, values for the test substances were obtained by conversion by means of the Cheng-Prusoff equation (Cheng, Prusoff; Biochem. Pharmacol. 22, 3099-3108, 1973).
# [2] = biological target: T1, vanilloid receptor 1 (VR1/TRPV1 receptor); assay: Functional VR1 assay, heat stimulus 45° C.; assay type: cell-based, human being; conditions: human VR1, heat stimulus 45° C.
# From the text: as §1
# as §2, with “Subsequently, the plates are washed three times with HBSS buffer and after further incubation for 15 minutes at RT used for Ca^2+ measurement in a FLIPR assay.” left out
# [3] = biological target: T2, vanilloid receptor 1 (VR1/TRPV1 receptor) (Mus musculus, UniProt Q704Y3); assay: FLIPR Ca2+ influx assay, capsaicin stimulus, mouse VR1; assay type: cell-based; conditions: functional, read-out: (f) Ki (mouse) [nM] Cap
# T2 construct: expressed in transfected cells; host or cells: CHO K1 cells stably transfected (inferred from method II)
# T2 sequence (Q704Y3 whole entry): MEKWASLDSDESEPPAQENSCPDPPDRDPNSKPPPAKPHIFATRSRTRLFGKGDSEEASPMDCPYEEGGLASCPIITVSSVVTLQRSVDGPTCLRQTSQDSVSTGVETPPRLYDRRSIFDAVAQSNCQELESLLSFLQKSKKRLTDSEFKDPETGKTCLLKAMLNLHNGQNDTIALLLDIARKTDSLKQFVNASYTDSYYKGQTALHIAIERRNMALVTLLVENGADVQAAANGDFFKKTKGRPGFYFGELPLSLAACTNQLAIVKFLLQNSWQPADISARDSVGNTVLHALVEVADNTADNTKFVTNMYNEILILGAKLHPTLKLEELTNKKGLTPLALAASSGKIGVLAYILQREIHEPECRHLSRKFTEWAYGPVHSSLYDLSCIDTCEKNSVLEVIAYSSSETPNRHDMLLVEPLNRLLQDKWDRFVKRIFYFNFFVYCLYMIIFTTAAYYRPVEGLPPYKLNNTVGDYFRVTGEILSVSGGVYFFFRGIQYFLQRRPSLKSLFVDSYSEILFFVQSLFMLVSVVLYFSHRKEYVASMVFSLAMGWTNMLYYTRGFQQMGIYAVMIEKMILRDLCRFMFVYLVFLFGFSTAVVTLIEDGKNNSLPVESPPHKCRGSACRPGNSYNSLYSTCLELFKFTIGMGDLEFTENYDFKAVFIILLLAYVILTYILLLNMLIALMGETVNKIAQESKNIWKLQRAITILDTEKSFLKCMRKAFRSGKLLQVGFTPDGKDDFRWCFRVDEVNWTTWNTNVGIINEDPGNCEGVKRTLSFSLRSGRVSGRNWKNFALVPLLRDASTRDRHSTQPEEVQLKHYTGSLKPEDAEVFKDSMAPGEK
# From the text: as §1
# Chinese hamster ovary cells (CHO K1 cells, European Collection of Cell Cultures (ECACC) United Kingdom) are stably transfected with the VR1 gene. For functional testing, these cells are plated out on poly-D-lysine-coated black 96-well plates having a clear base (BD Biosciences, Heidelberg, Germany) at a density of 25,000 cells/well. […] The Ca^2+-dependent fluorescence is measured before and after the addition of the substances to be tested (λex wavelength=488 nm, λem=540 nm). Quantification is carried out by measuring the highest fluorescence intensity (FC, fluorescence counts) over time.
# The FLIPR protocol consists of 2 substance additions. […] After 5 minutes' incubation, 100 nM of capsaicin are applied and the Ca^2+ influx is also determined. […]
# Starting from the percentage displacement caused by different concentrations of the compounds to be tested of general formula I, IC50 inhibitory concentrations which cause a 50-percent displacement of capsaicin were calculated. […]
molecule,measurement,setting,value
"CC(C)(C)c1ccc2c(c1)CC[C@H]2NC(=O)NCc1cc(C(F)(F)F)nn1-c1cccc(Cl)c1 [Example 2, (R)-1-(5-tert-butyl-2,3-dihydro-1H-inden-1-yl)-3-((1-(3-chlorophenyl)-3-(trifluoromethyl)-1H-pyrazol-5-yl)methyl)urea]",inhibition at 5 µM,[1],33%
"CC(C)(C)c1ccc2c(c1)CC[C@@H]2NC(=O)NCc1cc(C(F)(F)F)nn1-c1cccc(Cl)c1 [Example 3, (S)-1-(5-tert-butyl-2,3-dihydro-1H-inden-1-yl)-3-((1-(3-chlorophenyl)-3-(trifluoromethyl)-1H-pyrazol-5-yl)methyl)urea]",(f) Ki (human being) [nM] Cap,[1],Ne
"CC(C)(C)c1ccc2c(c1)C[C@H](NC(=O)NCc1cc(C(C)(C)C)nn1-c1cccc(Cl)c1)C2 [Example 4, (R)-1-((3-tert-butyl-1-(3-chlorophenyl)-1H-pyrazol-5-yl)methyl)-3-(5-tert-butyl-2,3-dihydro-1H-inden-2-yl)ure]",(f) Ki (human being) [nM] Cap,[1],Ne
"Cn1ncc2c1CCCC2NC(=O)NCc1cc(C(F)(F)F)nn1-c1cccc(Cl)c1 (stereo not drawn) [Example 7, 1-((1-(3-chlorophenyl)-3-(trifluoromethyl)-1H-pyrazol-5-yl)methyl)-3-(1-methyl-4,5,6,7-tetrahydro-1H-indazol-4-yl)urea]",(f) Ki (human being) [nM] Cap,[1],Ne
"CC(C(=O)NCc1cc(C(F)(F)F)nn1-c1cccc(Cl)c1)C1CCCc2ccc(O)cc21 (stereo not drawn) [Example 12, N-((1-(3-chlorophenyl)-3-(trifluoromethyl)-1H-pyrazol-5-yl)methyl)-2-(7-hydroxy-1,2,3,4-tetrahydronaphthalen-1-yl)propanamide]",Ki,[1],49.2 nM
same,inhibition at 2.5 µM,"[2]; @ 2.5 μM, read-out: inhibition (as a percentage), IC50 (human being) 45° C. column",30%
"O=C(NCc1cc(C(F)(F)F)nn1-c1cccc(Cl)c1)NC1CCCc2ccc(O)cc21 (stereo not drawn) [Example 13, 1-((1-(3-chlorophenyl)-3-(trifluoromethyl)-1H-pyrazol-5-yl)methyl)-3-(7-hydroxy-1,2,3,4-tetrahydronaphthalen-1-yl)urea]",Ki,[1],16.1 nM
same,IC50,"[2]; read-out: IC50 (human being) [nM], 45° C.",1860 nM
"CC(C)(C)c1cc(CNC(=O)NC2CCCc3ccc(O)cc32)n(-c2cccc(Cl)c2)n1 (stereo not drawn) [Example 14, 1-((3-tert-butyl-1-(3-chlorophenyl)-1H-pyrazol-5-yl)methyl)-3-(7-hydroxy-1,2,3,4-tetrahydronaphthalen-1-yl)urea]",Ki,[3],132 nM
same,Ki,[1],7.7 nM
"CC(C(=O)NCc1cc(C(F)(F)F)nn1-c1ccc(F)c(Cl)c1)C1CCCc2ccc(O)cc21 (stereo not drawn) [Example 15, N-((1-(3-chloro-4-fluorophenyl)-3-(trifluoromethyl)-1H-pyrazol-5-yl)methyl)-2-(7-hydroxy-1,2,3,4-tetrahydronaphthalen-1-yl)propanamide]",Ki,[1],29.5 nM
"O=C(NCc1cc(C(F)(F)F)nn1-c1cccc(Cl)c1)NC1CCCc2cnccc21 (stereo not drawn) [Example 19, 1-((1-(3-chlorophenyl)-3-(trifluoromethyl)-1H-pyrazol-5-yl)methyl)-3-(5,6,7,8-tetrahydroisoquinolin-5-yl)urea]",inhibition at 5 µM,[1],38%
"CC(C)(C)c1cc(CNC(=O)NC2CCCc3cnccc32)n(-c2cccc(Cl)c2)n1 (stereo not drawn) [Example 20, 1-((3-tert-butyl-1-(3-chlorophenyl)-1H-pyrazol-5-yl)methyl)-3-(5,6,7,8-tetrahydroisoquinolin-5-yl)urea]",Ki,[1],73.6 nM
"N-((1-(3-chlorophenyl)-3-(trifluoromethyl)-1H-pyrazol-5-yl)methyl)-2-(7-hydroxy-1,2,3,4-tetrahydronaphthalen-1-yl)propanamide [Example 10]","inhibition (as a percentage), (f) Ki (human being) Cap column",[1]; @ 1 μM,14% @ 1 μM
same,"inhibition (as a percentage), (f) Ki (human being) Cap column",[1]; @ 5 μM,34% @ 5 μM
